Reference: patent US20240077500A1, “METHOD FOR THE DETECTION AND TREATMENT OF PROTEINOPATHIES” (Women & Infants Hospital of Rhode Island, priority 2021, published 2024)

What was measured:
human trophoblasts = assay: AD serum-induced protein aggregation in primary human trophoblasts, ProteoStat staining; type: cell-based; settings: 50 mM trehalose, 10% AD patient serum, 72 hours
Method: (§1) Primary human trophoblasts and SHSY cells were cultured and washed with serum-free media at 70% confluency. The cells were then cultured with 10% serum samples from AD patients for 72 hours (trophoblasts) and 24 hours (neuronal cells), respectively, in the absence or presence of 50 mM trehalose. Cells were stained with ProteoStat dye and evaluated for accumulation of protein aggregates.

[1] = test system: hTAU transgenic mouse model; assay: Preeclampsia serum-induced onset of AD features in the hTAU transgenic mouse model (Example 7); type: in vivo; settings: weekly trehalose (2 mg/kg) from 2 months (60 day old mice) for one month; preeclampsia serum injected at 1 month
Method: The efficacy with which trehalose inhibits the onset of Alzheimer's disease (AD) features was assessed using the hTAU transgenic mouse model at ages of 3, 6, 9, and 12 months. The onset of AD features were preempted by the administration of serum obtained from pregnant women with normal pregnancy or preeclampsia.

[2] = for humans, by the FDA, based on safety studies in mice, rats and rabbits, including during pregnancy; cited from earlier work
hTAU mice [3] = assay: Ledge assay (sensorimotor coordination) in e-PES injected hTAU mice; type: in vivo, mouse; settings: for falling off of the ledge / mobility: e-PES+trehalose mice
Description: FIGS. 22A-22C provide the results of sensory-motor coordination studies utilizing a ledge assay. hTAU mice were compared to hTAU mice injected with e-PES at 10-12 weeks age (n=5) with or without trehalose administration. […] FIG. 22C provides a bar graph comparing time spent on the ledge (seconds) for each subset of mice (i.e., hTAU control, PES 49, and PES 49+trehalose).
Sensorimotor coordination deficits were detected by the ledge assay. In the ledge assay, mice were placed on the elevated cage's ledge at a height of 35 cm and width of 0.8 cm and their movement was monitored. Each mouse was tested three times (approximately 20 seconds) and scored from 0 to 3 depending on the severity of deficits.
(§2) 100 μL e-PES (early-onset preeclampsia serum) was injected in 10-12 weeks old non-pregnant female hTAU mice. The i.p. injection was performed once a week for 4 weeks. Trehalose treatment (2 g/kg/week) or saline (100 μL/week) was initiated after completion of 4 weeks of e-PES injection cycle. At the end of the trehalose treatment, a group of mice (n=5 for each group) was sacrificed after 2 weeks of resting biological activity (FIG. 18).
(§3) Another two groups were kept to assess their behavioral and brain pathological outcomes (i.e., nesting behavior and/or sensory motor coordination).

hTAU mice [4] = assay: Nesting activity assay in e-PES injected hTAU mice; type: in vivo, mouse
Method: FIG. 21A: provides photographs of representative nests constructed by the mice; FIG. 21B and FIG. 21D provide bar graphs showing nestlet score for 4-month old (FIG. 21B) and 6-month old (FIG. 21D) mice; FIG. 21C and FIG. 21E provide bar graphs showing untorn nestlet weight for 4-month old (FIG. 21C) and 6-month old (FIG. 21E) mice.
Nesting activity was assessed using a modified scoring criteria to rate the quality of nest construction and the amount of torn nestlet material. Following the nocturnal period, untorn nesting material was weighed, and nests were photographed for scoring on a 0-7 ordinal scale modified from published criteria. Nestlet scores and weights are shown as mean+SEM; *p<0.05 versus controls. Preeclampsia serum was used to observe significant effects in hTAU mice without waiting for 9-12 months of age.
as §2, §3

hTAU mice [5] = assay: Brain pathology (AT180 hyperphosphorylated Tau staining of mPFC) in e-PES injected hTAU mice (Example 8); type: in vivo, mouse; settings: trehalose 2 g/kg/week i.p. for 4 weeks after 4 weeks of e-PES injection
Method: 10-12 week old non-pregnant female hTAU mice were injected with e-PE serum (100 μL/week for 4 weeks) followed by treatment (i.p injection) with either saline (100 μL /week) or Trehalose (2 g/kg/week) for 4 weeks, followed by 2 weeks of resting period prior to biological assessments. Medial prefrontal cortex (mPFC) was stained for hyperphosphorylated Tau (using antibody AT180 which detects Tau hyperphosphorylation at T231 & S235). FIG: 19A: Confocal images stained with AT180 are shown that correspond to the mPFC of control (upper), e-PES (middle), and e-PES+Trehalose (bottom), with quantification data in mPFC being present at right panels; inset images are the high magnification image of the selected area; FIG. 19B: provides a bar graph showing the number of AT180 positive cells/0.1 mm^2 in hTAU control, PES 49, and PES 49+trehalose treated mice.
10-12 weeks old non-pregnant female hTAU mice were injected with e-PE serum (100 μL/week for 4 weeks) followed by treatment (i.p injection) with either saline (100 μL/week) or Trehalose (2 g/kg/week) for 4 weeks, followed by 8-10 weeks of resting period prior to biological assessment. Medial prefrontal cortex (mPFC) was stained for hyperphosphorylated Tau (using antibody AT180 which detects Tau hyperphosphorylation at T231 & S235). […]
Brain pathologies were evaluated in a group of mice at 4 and 6 months of age.

SHSY neuronal cells = assay: AD serum-induced protein aggregation in SHSY neuronal cells, ProteoStat staining; type: cell-based; settings: 50 mM trehalose, 10% AD patient serum, 24 hours
Method: as §1

[6] = e-PES alone compared to control and e-PES+trehalose treated hTAU mice (n=5), 6 months

## OC[C@H]1O[C@H](O[C@H]2O[C@H](CO)[C@@H](O)[C@H](O)[C@H]2O)[C@H](O)[C@@H](O)[C@@H]1O [trehalose, (2R,2′R,3 S,3′S,4S,4′S,5R,5′R,6R,6′R)-6,6′-oxybis(2-(hydroxymethyl)tetrahydro-2H-pyran-3,4,5-triol)]
Human trophoblasts
  AD serum-caused protein aggregation: could be inhibited
[1]
  onset of AD features: inhibited the onset of AD features
[2]
  safety status: generally regarded as safe
hTAU mice [3]
  falling off of the ledge / mobility: immobile, not falling off
hTAU mice [3]; listed as Trehalose
  falling off of the ledge / mobility: did not fall off of the ledge frequently
hTAU mice [3]; trehalose 2 g/kg/week for 4 weeks after e-PES injection
  motor activity: could not restore motor activity completely
hTAU mice [3]; trehalose 2 g/kg/week for 4 weeks after e-PES injection at 10-12 weeks of age
  sensorimotor coordination deficits: partially prevented
hTAU mice [3]; trehalose treated mice (n=5) compared to only e-PES treated mice
  time spent on the ledge: significantly more time on the ledge
hTAU mice [4]; between control and indicated treatment groups, 4 month old hTAU mice
  nestlet score at 4 months of age: no significant changes
hTAU mice [4]; [6]
  nestlet score at 6 months of age: significantly lower nestlet scores
  untorn nestlet weight at 6 months of age: significantly greater untorn nestlet weights
hTAU mice [4]; limited (4 weeks) treatment with trehalose, 2 g/kg/week
  cognitive decline: improved cognitive decline
hTAU mice [5]
  hTAU burden: reduced hTAU burdern
SHSY neuronal cells
  AD serum-caused protein aggregation: could be inhibited
